Measurements from publication PMC8051587 (ACS chemical biology, 2020).
Values joined by “and” are separate entries in the source; they are usually repeats but may differ in a detail not shown here. Identical values can stand only once. Like-named read-outs stand apart in the source and are kept apart here.

Assays:
[1] = biological target: T1, full-length A/Udorn/72 M2 S31N (Influenza A virus, UniProt P0DOF5, S31N); conditions: cited from earlier work
[2] = biological target: T1, full-length A/Udorn/72 M2 S31N
A/WSN/33 M2 N31S virus = assay type: cell-based, influenza A virus; conditions: for EC50: read-out: EC50 ± SD
[3] = test system: A/WSN/33 virus (with naturally occurring M2 N31); experiment: microbe, parasite or virus in culture; assay type: cell-based; conditions: for EC50: read-out: EC50 ± SD
[4] = CPE inhibition assay, MDCK cells, amantadine-resistant A/WSN/33 (M2 N31)

SMILES	IC50 ([1]; read-out: IC50 in TEVC with M2 S31N, previously reported) [nM]	Kd ([1]; read-out: Kd (literature value, footnote g), footnote to the Kd value, ref [3]) [nM]	Blockage Eliminated in Wash Out(%) [2] [%]	Kd [2] [nM]	Percent Block [2]	kon [2] [M⁻¹ s⁻¹]	EC50 ± SD (A/WSN/33 M2 N31S virus)	EC50 [3, 4] [nM]	EC50 (A/WSN/33 M2 N31S virus) [nM]	EC50 ([3]; Influenza A virus, WSN, MDCK) [nM]	EC50 ± SD [3, 4]
c1csc(-c2cc(CNC34CC5CC(CC(C5)C3)C4)on2)c1 [Compound 6]	16000	16000	6.8 ± 1.2	7500 ± 300	99.2% and 99 ± 1%	2280 ± 150	not active	153			
CCOC(=O)C1=C[C@@H](OC(CC)CC)[C@H](NC(C)=O)[C@@H](N)C1 [Oseltamivir]									30 ± 20	10 ± 10	
NC12CC3CC(CC(C3)C1)C2 [Amantadine, amantadine]									250 ± 70		not active
